In patent publication US20240327411A1, “SIRT6 ACTIVATORS” (The Board of Regents of The University of Texas System, priority 2022, published 2024):
“And” between values parts separate entries of the source, which are not always exact repeats. Equal values may be shown once.

Legend:
Sirt6 [1] = target: T1, Sirt6 (Homo sapiens, UniProt Q8N6T7); test: Sirt6-dependent peptide deacetylation, FLUOR DE LYS / Sirt6 fluorometric activity kit; assay type: biochemical; details: mean ± SD, at least two independent experiments; for Activation Fold 30 μM: compound at 30 μM; for Activation Fold 100 μM: compound at 100 μM
T1 sequence (Q8N6T7 whole entry): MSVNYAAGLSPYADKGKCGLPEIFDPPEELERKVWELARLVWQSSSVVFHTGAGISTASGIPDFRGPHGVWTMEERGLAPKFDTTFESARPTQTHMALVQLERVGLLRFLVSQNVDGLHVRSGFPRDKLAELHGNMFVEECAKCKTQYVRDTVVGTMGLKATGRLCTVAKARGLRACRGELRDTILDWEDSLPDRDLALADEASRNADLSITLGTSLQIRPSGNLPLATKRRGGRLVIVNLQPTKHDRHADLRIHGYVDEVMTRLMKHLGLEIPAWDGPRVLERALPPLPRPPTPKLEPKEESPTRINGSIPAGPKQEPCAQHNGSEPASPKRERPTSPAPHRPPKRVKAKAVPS
Description: Sirt6/Sirt1/Sirt2/Sirt3 activity was tested by Activity Assay Kits (Abcam) according to the manufacturer's instruction with minor modification. […] All experiments were conducted at room temperature.

[2] = tested on: retinal precursor cells (R28); test: MTT cell viability assay in R28 cells; assay type: cell-based; details: 30 μM, 24 hours
Description: FIGS. 5A-5C: FIGS. 5A-5C display the deacetylation effect and cytotoxicity of selected compounds. […] Nucleosomes extracted from HEK293T cells were incubated with 100 μM of selected compounds or Vehicle at 30° C. for 60 minutes. Acetylated H3K9 and total H3 were detected by Western blot. The level of acetylated H3K9 was quantified by Image Lab software. FIGS. 5B and 5C show the cell viability which was assessed by MTT assay. R28 cells were treated with 30 μM or 100 μM compounds for 24 hours. Data were presented as mean±SEM. The experiment was repeated at least three times. ***p<0.001; ****p<0.0001.
R28 cells were seeded in 96 well plates at a density of 1×10^4/well overnight, then treated with compounds for 24 h. MTT (MilliporeSigma) was added to cells (20 μL/well) and incubated for 3.5 h. After medium was removed, 100 μL dimethyl sulfoxide (DMSO) was added into each well. Absorbance was measured at 540 nm using a microplate reader.

Sirt6 [3] = target: T1, Sirt6; test: Nucleosome test: Sirt6-dependent H3K9 deacetylation of nucleosomes from HEK293T cells, Western blot; assay type: biochemical; details: 100 μM, 30° C., 60 minutes
Description: . Nucleosomes extracted from HEK293T cells were incubated with 100 μM of selected compounds or Vehicle at 30° C. for 60 minutes. Acetylated H3K9 and total H3 were detected by Western blot. The level of acetylated H3K9 was quantified by Image Lab software. FIGS. 5B and 5C show the cell viability which was assessed by MTT assay. R28 cells were treated with 30 μM or 100 μM compounds for 24 hours. Data were presented as mean±SEM. The experiment was repeated at least three times. ***p<0.001; ****p<0.0001.
Next, effects of selected compounds were explored for Sirt6-dependent deacetylation of complete nucleosomes extracted from human embryonic kidney (HEK) 293T cells, as nucleosomes represent more physiologically relevant substrates. […]. Briefly, HEK 293T cells in 100 mm dish were lysed with lysis buffer supplemented with PIC and PMSF for 30 min. After centrifugation for 10 min at 5000 rpm at 4° C., supernatant was removed and nuclei pellet was resuspended with digestion buffer supplemented with PIC and PMSF for 5 min at 37° C. Working enzymatic sharing cocktail was added to digest the chromatin, and EDTA was added after incubation to stop the digestion. Digested nucleosome was obtained in the supernatant after centrifugation for 10 min at 15000 rpm at 4° C. and the concentration was quantified by measuring the absorbance at […]. 20 μg nucleosome was incubated in solution (1× buffer, 0.5 μL recombinant Sirt6 and […] NAD, from SIRT6 ACTIVITY ASSAY KIT) for 60 min. To test the effects of the compounds on Sirt6 activity, corresponding compound or DMSO control was added before incubation. The reaction mixture was analyzed by Western blot.
Proteins were extracted from cells with PIERCE RIPA BUFFER (89901, ThermoFisher Scientific), and protein concentration was determined using PIERCE BCA PROTEIN ASSAY KIT (23225, ThermoFisher Scientific). Equal amounts of protein were loaded and separated by SDS-PAGE gel. Next, separated proteins were transferred onto Nitrocellulose Blotting Membranes (A29457237, GE Healthcare Life science), and then the membranes were blocked by 5% non-fat dry milk. After incubation with corresponding primary antibodies against H3K9ac, H3 and Sirt6 at a 1:1000 dilution, or α-tubulin at a 1:5000 dilution, goat anti-mouse or goat anti-rabbit secondary antibodies at a 1:5000 dilution were applied. Finally, membranes were incubated with enhanced chemiluminescent and protein bands were detected by CHEMIDOC imaging system (Bio-Rad). Image-Lab software was used to analyze the intensities of the protein bands.

BV2 cells = test: LPS-induced inflammatory gene mRNA expression in BV2 cells, q-PCR; assay type: cell-based, murine
[4] = BV2 cells, 30 μM, 100 ng/mL LPS 6 hours, mRNA

Compound | Activation Fold 30 μM (Sirt6 [1]) | Activation Fold 100 μM (Sirt6 [1]) | other results
COCCCN1CCN(c2ncccc2C2Nc3ccccc3-n3cccc32)CC1 (stereo not shown) [Compound 37, 4-(2-(4-(3-Methoxypropyl)piperazin-1-yl)pyridin-3-yl)-4,5-dihydropyrrolo[1,2-a]quinoxaline] | 3.13 ± 0.14 fold | 5.02 ± 0.25 fold | –
N#CCN1CCN(c2ncccc2C2Nc3ccccc3-n3cccc32)CC1 (stereo not shown) [Compound 40, 2-(4-(3-(4,5-Dihydropyrrolo[1,2-a]quinoxalin-4-yl)pyridin-2-yl)piperazin-1-yl)acetonitrile] | 2.37 ± 0.04 fold | 4.74 ± 0.26 fold | –
NC(=O)CN1CCN(c2ncccc2C2Nc3ccccc3-n3cccc32)CC1 (stereo not shown) [Compound 41, 2-(4-(3-(4,5-Dihydropyrrolo[1,2-a]quinoxalin-4-yl)pyridin-2-yl)piperazin-1-yl)acetamide] | 1.73 ± 0.12 fold | 3.43 ± 0.48 fold | –
O=C(CCl)N1CCN(c2ncccc2C2Nc3ccccc3-n3cccc32)CC1 (stereo not shown) [Compound 42, 2-Chloro-1-(4-(3-(4,5-dihydropyrrolo[1,2-a]quinoxalin-4-yl)pyridin-2-yl)piperazin-1-yl)ethan-1-one] | 1.93 ± 0.02 fold | 2.84 ± 0.28 fold | –
CN(C)CC(=O)N1CCN(c2ncccc2C2Nc3ccccc3-n3cccc32)CC1 (stereo not shown) [Compound 43, 1-(4-(3-(4,5-Dihydropyrrolo[1,2-a]quinoxalin-4-yl)pyridin-2-yl)piperazin-1-yl)-2-(dimethylamino)ethan-1-one] | 2.31 ± 0.07 fold | 3.78 ± 0.15 fold | –
O=C(N1CCN(c2ncccc2C2Nc3ccccc3-n3cccc32)CC1)N1CC(O)C1 (stereo not shown) [Compound 44, (4-(3-(4,5-Dihydropyrrolo[1,2-a]quinoxalin-4-yl)pyridin-2-yl)piperazin-1-yl)(3-hydroxyazetidin-1-yl)methanone] | 2.67 fold and 2.67 ± 0.19 fold | 5.26 fold and 5.26 ± 0.13 fold | –
c1ccc2c(c1)NC(c1cccnc1N1CCN(CCN3CCC3)CC1)c1cccn1-2 (stereo not shown) [Compound 45, 4-(2-(4-(2-(Azetidin-1-yl)ethyl)piperazin-1-yl)pyridin-3-yl)-4,5-dihydropyrrolo[1,2-a]quinoxaline] | 2.81 ± 0.01 fold | 5.85 ± 0.01 fold | –
c1ccc2c(c1)NC(c1cccnc1N1CCN(CCN3CCCC3)CC1)c1cccn1-2 (stereo not shown) [Compound 47, 4-(2-(4-(2-(Pyrrolidin-1-yl)ethyl)piperazin-1-yl)pyridin-3-yl)-4,5-dihydropyrrolo[1,2-a]quinoxaline] | 4.80 ± 0.19 fold | 5.38 ± 0.29 fold | toxicity on retinal precursor cells (R28) [2]: no obvious toxicity; acetylation of H3K9 in the nucleosome test (Sirt6 [3]): no effect; LPS-induced expression of IL-1β, IL-6, MCP-1, and TNFα (BV2 cells; BV2 cells, 30 μM pretreatment 30 minutes, 100 ng/mL LPS 6 hours, mRNA): strongly inhibited; ICAM-1 induction (BV2 cells; [4]): slight inhibition; LPS-induced IL-1β, IL-6, and MCP-1 response (BV2 cells; [4]): almost reversed; LPS-induced iNOS and CXCL10 expression (BV2 cells; [4]): significantly repressed; VCAM-1 induction (BV2 cells; [4]): obviously inhibit; LPS-induced proinflammatory cytokine/chemokine production (BV2 cells; summary statement): strongly repressed
O=C1CCCN1CCN1CCN(c2ncccc2C2Nc3ccccc3-n3cccc32)CC1 (stereo not shown) [Compound 48, 1-(2-(4-(3-(4,5-Dihydropyrrolo[1,2-a]quinoxalin-4-yl)pyridin-2-yl)piperazin-1-yl)ethyl)pyrrolidin-2-one] | 3.48 ± 0.02 fold | 5.64 ± 0.43 fold | –
c1ccc2c(c1)NC(c1cccnc1N1CCN(CCN3CCOCC3)CC1)c1cccn1-2 (stereo not shown) [Compound 49, 4-(2-(4-(3-(4,5-Dihydropyrrolo[1,2-a]quinoxalin-4-yl)pyridin-2-yl)piperazin-1-yl)ethyl)morpholine] | 3.02 ± 0.04 fold | 5.99 ± 0.21 fold | –
CN(C)CCN1CCN(c2ccccc2C2Nc3ccccc3-n3cccc32)CC1 (stereo not shown) [Compound 63, 2-(4-(2-(4,5-Dihydropyrrolo[1,2-a]quinoxalin-4-yl)phenyl)piperazin-1-yl)-N,N-dimethylethan-1-amine] | 2.62 fold and 2.62 ± 0.34 fold | 5.43 fold and 5.43 ± 0.21 fold | –

Now from value to compound, other results behind:

Activation Fold 30 μM (Sirt6 [1]) | Activation Fold 100 μM (Sirt6 [1]) | Compound | other results
3.21 ± 0.06 fold | 6.60 ± 0.22 fold | CN(C)C(=O)CN1CCN(c2ncccc2C2Nc3ccccc3-n3cccc32)CC1 (stereo not shown) [Compound 39, 2-(4-(3-(4,5-Dihydropyrrolo[1,2-a]quinoxalin-4-yl)pyridin-2-yl)piperazin-1-yl)-N,N-dimethylacetamide] | –
2.67 fold and 2.67 ± 0.01 fold | 4.23 fold and 4.23 ± 0.22 fold | CN(C)CCN1CCN(c2ncccc2C2Oc3ccccc3-n3cccc32)CC1 (stereo not shown) [Compound 66, 2-(4-(3-(4H-Benzo[b]pyrrolo[1,2-d][1,4]oxazin-4-yl)pyridin-2-yl)piperazin-1-yl)-N,N-dimethylethan-1-amine] | –
2.99 ± 0.05 fold | 4.56 ± 0.04 fold | Cc1ccc2c(c1)-n1cccc1C(c1cccnc1N1CCN(CCN(C)C)CC1)O2 (stereo not shown) [Compound 68, N,N-Dimethyl-2-(4-(3-(8-methyl-4H-benzo[b]pyrrolo[1,2-d][1,4]oxazin-4-yl)pyridin-2-yl)piperazin-1-yl)ethan-1-amine] | –
4.51 ± 0.06 fold | 5.65 ± 0.22 fold | COc1ccc2c(c1)-n1cccc1C(c1cccnc1N1CCN(CCN(C)C)CC1)O2 (stereo not shown) [Compound 69, 2-(4-(3-(8-Methoxy-4H-benzo[b]pyrrolo[1,2-d][1,4]oxazin-4-yl)pyridin-2-yl)piperazin-1-yl)-N,N-dimethylethan-1-amine] | –
1.84 ± 0.04 fold | 2.53 fold and 2.53 ± 0.05 fold | CN(C)CCN1CCN(c2ncccc2C2Oc3ccc(F)cc3-n3cccc32)CC1 (stereo not shown) [Compound 70, 2-(4-(3-(8-Fluoro-4H-benzo[b]pyrrolo[1,2-d][1,4]oxazin-4-yl)pyridin-2-yl)piperazin-1-yl)-N,N-dimethylethan-1-amine] | –
4.16 ± 0.18 fold | 4.82 ± 0.14 fold | COC(=O)c1ccc2c(c1)OC(c1cccnc1N1CCN(CCN(C)C)CC1)c1cccn1-2 (stereo not shown) [Compound 71, Methyl 4-(2-(4-(2-(dimethylamino)ethyl)piperazin-1-yl)pyridin-3-yl)-4H-benzo[b]pyrrolo[1,2-d][1,4]oxazine-7-carboxylate] | –
1.59 ± 0.03 fold | 2.69 fold and 2.69 ± 0.03 fold | CN(C)CCN1CCN(c2ncccc2C2Oc3cc(CO)ccc3-n3cccc32)CC1 (stereo not shown) [Compound 72, (4-(2-(4-(2-(Dimethylamino)ethyl)piperazin-1-yl)pyridin-3-yl)-4H-benzo[b]pyrrolo[1,2-d][1,4]oxazin-7-yl)methanol] | –
2.69 ± 0.02 fold | 4.20 ± 0.06 fold | CN(C)CCN1CCN(c2ncccc2C2Oc3ccccc3-n3c2ccc3C(F)(F)F)CC1 (stereo not shown) [Compound 76, N,N-Dimethyl-2-(4-(3-(1-(trifluoromethyl)-4H-benzo[b]pyrrolo[1,2-d][1,4]oxazin-4-yl)pyridin-2-yl)piperazin-1-yl)ethan-1-amine] | –
